# Measured values: the pKa sets of Baltruschat and Czodrowski (2020)
# Where a SMILES comes first, the peptide text is derived from it.
# Details: acidic group
row,SMILES,pKa
1,CN1CC(O)C2=C/C(=N\O)C(=O)C=C21 (stereo not given),8.6
2,NC(=S)Nc1ccc(Cl)cc1,12.3
3,Cn1c(=O)[nH]c2ncn(C)c2c1=O,8.65
4,CC(=O)C(C=O)C(C)=O,4.6
5,Fc1cccc(NC(=S)c2cccc(Br)c2)c1,10
6,CC(C)(C)C(=O)C(=O)O,2.3
7,O=C(O)c1cccc(-c2nnn[nH]2)c1,3.74
8,Cn1n[n+](C)nc1N,2.5
9,Cc1ccccc1[Se]CC(=O)O,3.79
10,C/C=C/c1ccc2cccnc2c1O,11.3
11,C1COCCOCc2n[nH]c(n2)COCCOCCO1,9.55
12,CC/C=C/Cc1nc(C(=O)[O-])cn1[C@H](C(=O)[O-])C(C)(C)S,10.2
13,CCCCCCCCC(=O)OO,8.23
14,C=CC(Cl)C(=O)O (stereo not given),2.54
15,CCCCCCCCCCCNCc1ccc(C)cc1,9.46
16,CCCc1c(-c2ccccc2)nn(-c2ccccc2)c1O,7
17,Nc1ccc(S(=O)(=O)Nc2nccc(N)n2)cc1,9.44
18,COC(=O)[C@H]1[C@@H]2Cc3c4[nH]c5ccccc5c4cc[n+]3C[C@H]2CC[C@H]1O,10.7
19,SCc1ccccc1,9.43
20,CC/C=C/Cc1nccn1[C@H](C(=O)[O-])C(C)(C)S,10.4
21,Cc1cccc([N+](=O)[O-])c1C(=O)O,2.13
22,O=C(O)C(=O)Cc1ccccc1,2.68
23,Cc1noc(NS(=O)(=O)c2ccc(N)cc2)c1C,4.16
24,c1ccc(CSc2nc(SCc3ccccc3)c(-c3ccccc3)[nH]2)cc1,10.9
25,CCC[n+]1cccc2c(O)cccc21,6.06
26,O=S1(=O)N=C[N-]c2nc[nH]c21,11

row,SMILES,pKa
1,N#Cc1ccc(S(=O)(=O)NCc2ccccc2)cc1,10.3
2,CCc1ccc(O)c(C(C)C)c1,10.8
3,COc1ccc(C(=S)Nc2ccccc2)cc1,11.3
4,C[N+](C)(C)c1ccc(O)cc1,8.25
5,O=C(O)CNC(=O)CNS(=O)(=O)c1ccccc1,3.55
6,CCc1cc(C)cc(O)c1,10.1
7,NS(=O)(=O)c1ccc(P(=O)([O-])[O-])cc1,10
8,N#CC(C#N)=NNc1ccccc1C(=O)O,6.7
9,Nc1cc(N2CCOCC2)nc(N)n1,-0.35
10,Oc1ccc2ncncc2c1,8.19
11,O=C(O)CCC(=O)c1ccc2ccccc2c1,4.96
12,CC(=N\O)/C(CN(C)C)=N\O,10.6
13,O=C/C(O)=C\[O-],13
14,Cc1ccc(S)cc1,6.47
15,O=C([O-])/C=C\C(=O)NOCc1ccccc1,10
16,N#Cc1cccc(O)c1,8.63
17,NC(=O)C[C@H](N)C(N)=O,7
18,[O-]/N=C1\CCCC\C1=N/O,12.6
19,CC(C)=CCC1C(=O)C(CC=C(C)C)(CC=C(C)C)C(O)(C(=O)[O-])C1=O (stereo not given),9.7
20,OC(c1ccccc1)c1ccccn1 (stereo not given),12.8
21,O=[N+]([O-])c1ccc(-c2ccc(O)cc2)cc1,9.01
22,Nc1c2ccccc2[nH+]c2ccc(O)cc12,7.71
23,CS(=O)(=O)c1ccc(O)cc1,7.83
24,O=[N+]([O-])c1n[nH]c(-n2cnc(Cl)n2)n1,1.59
25,CC/C(C)=C\C(=O)O,5.15
26,CC(/N=N/O)c1ccccc1 (stereo not given),8.32

row,SMILES,pKa
1,CC[NH+](CC)CCCNC(=O)/C=N/O,8.75
2,O=C(O)c1csc(Cl)n1,3.3
3,Cc1ccc(C(=O)NS(=O)(=O)c2ccc(N)cc2)cc1C,4.66
4,Nc1ccc(NS(=O)(=O)c2ccccc2)cc1,9.05
5,O=C(O)CCCC1CCCCC1,4.95
6,Oc1nc2nc[nH]c2c[nH+]1,1.69
7,CN(CCC[NH+](C)C)C(=O)/C=N/O,8.68
8,Cc1cccc(C(=O)O)c1[N+](=O)[O-],2.91
9,CC1CCC(=O)C1=O (stereo not given),9.6
10,OCc1nc2ncncc2[nH]1,8.79
11,Oc1ccc2ccncc2c1,8.88
12,Oc1ccc(/N=N/c2nccs2)c(O)c1,1.56
13,O=C1C=CC(=O)/C(=N/O)N1,8.4
14,O=NNc1nc([N+](=O)[O-])nn1-c1ccccc1,3.33
15,CC(=O)NS(=O)(=O)c1ccccc1C(=O)O,3.1
16,O=[N+]([O-])c1cccc(/C=N\O)c1,10.7
17,Oc1ccccc1Br,8.4
18,C/C(=C\c1cc(C(C)(C)C)c(O)c(C(C)(C)C)c1)C(=O)[O-],11.5
19,C[C@H]1CCCC[C@@H]1C(=O)O,4.74
20,Oc1[nH+]ncc2ccccc12,-2
21,CC(=O)[n+]1ccc(C)cc1,6.15
22,O=Cc1c(O)cccc1Cl,8.26
23,O=C(O)[C@@H]1O[C@H](Oc2c[nH+]c3ccccc3c2)[C@@H](O)[C@H](O)[C@H]1O,3
24,Cc1c(O)cccc1C(=O)O,3.83
25,[O-]c1nc(C(F)(F)F)nc2nc[nH]c12,11.2
26,Cn1nc([N+](=O)[O-])nc1NN=O,3.22

# Same assay, conditions: basic group
row,SMILES,pKa
1,CC1CCN(O)C1(C)C (stereo not given),5.9
2,CCCCCCCCNCc1ccc(C)cc1,9.47
3,N=C(N)Nc1nc(N)nc(N)n1,9.4
4,Cn1c(=O)[nH]c2ncn(C)c2c1=O,0.5
5,CC(C)NCCNC(C)C,10.4
6,Cc1cccc(/N=C/N(C)C)c1,9.11
7,C#CCN,8.19
8,c1c[nH]c(P(c2[nH]cc[nH+]2)c2[nH]cc[nH+]2)n1,5.26
9,Cc1c(Br)cc(N)cc1Br,2.87
10,CCN(CC)CCCC(C)Nc1ccnc2ccccc12 (stereo not given),10.2
11,CN(C)CCC/N=C(\c1ccccc1)c1ccccc1-c1ccccc1,9.2
12,CC(C)CCCN(C)CCCNC(=O)/C=N/[O-],10.2
13,C/C=C/c1ccc2cccnc2c1O,4.66
14,Nc1ccnc2ccc3ncccc3c12,7.3
15,CCOC(=O)c1cc(-c2ccccc2)nnc1NCC[NH+]1CCOCC1,1.5
16,Cc1cccc(C=O)n1,4.55
17,C1COCCOCc2n[nH]c(n2)COCCOCCO1,2.36
18,CC/C=C/Cc1nc(C(=O)[O-])cn1[C@H](C(=O)[O-])C(C)(C)S,6.4
19,CC(=O)Nc1ccc2nc3ccccc3cc2c1,4.7
20,Cn1ccc2ccc3cccnc3c21,4.36
21,COc1ccc(-c2cnc(-c3ccc(C)cc3)o2)cc1,1.26
22,COc1cccc([O-])n1,9.77
23,CC(=O)OC1CN2CCC1CC2 (stereo not given),9.27
24,Cc1ncc(CO)c(CN)c1[O-],10.3
25,CCCCNCc1ccccc1,9.46

row,SMILES,pKa
1,CC/C=C/Cc1nccn1[C@H](C(=O)[O-])C(C)(C)S,7.2
2,Nc1nc(N)nc(Nc2ccccc2)n1,4.65
3,Nc1ccccc1-c1ccccc1,3.81
4,Cc1cc([O-])[nH+]c([O-])n1,9.29
5,C[C@@H]1CCC[C@H](C)N1,11
6,CC[C@@H]1C(=O)OC[C@@H]1Cc1cncn1C,6.99
7,NC1=N[C@H]2C[C@@H](N1)N[C@@H]2C(=O)[O-],12.6
8,CC(C)(C)CN,10.2
9,c1ccc(CSc2nc(SCc3ccccc3)c(-c3ccccc3)[nH]2)cc1,2.7
10,CN(CCCN)CCCN,10.4
11,O=[N+]([O-])c1ccc(-n2nnnc2/C=C/c2ccc(Cl)cc2)cc1,-3.05
12,C[Se](C)=O,2.55
13,CCNCC#CCNCC,8.32
14,Cc1c(O)c(=O)n(-c2ccccc2)n1C,-0.22
15,OCC1CN2CCC1CC2 (stereo not given),10.6
16,[NH3+]Nc1nncc2ccccc12,2.9
17,Cc1nn(C)c(C)c1Cl,1.96
18,CC(C)(N)C(N)=S,7.61
19,CC1C(=O)OC(C(C)(C)C)C1=O (stereo not given),4.84
20,Cc1cnc(C)cn1,1.95
21,N#CC(C#N)=NNc1ccccc1C(=O)O,-0.96
22,Nc1cc(N2CCOCC2)nc(N)n1,6.73
23,CC(N)(C(=O)[O-])c1ccccc1 (stereo not given),9
24,CC(C)CSCCN,8.73
25,Oc1ccc2ncncc2c1,3.12

row,SMILES,pKa
1,O=C([O-])c1ccc([N+](=O)[O-])c2cccnc12,4.67
2,CC(=N\O)/C(CN(C)C)=N\O,8.4
3,Nc1ccc2c(c1)Cc1cccc(O)c1-2,4.73
4,CC1=CSC2=NCCN12,9.81
5,C[NH+](C)C[C@@H]1[C@@H](N)[C@]2(C)CC[C@@H]1C2(C)C,7.5
6,Nc1ccc(-c2cnc(-c3ccccc3)o2)cc1,3.68
7,COc1ccc(-c2ncc(-c3ccccc3)o2)cc1,1.25
8,C=CCC(C)(CN(CC)CC)OC(=O)CCC (stereo not given),8.5
9,OC(c1ccccc1)c1ccccn1 (stereo not given),4.44
10,COCc1nc(C)c[nH]1,7.03
11,CN(C)Cc1ccccc1CO,8.78
12,CN([NH3+])C(N)=S,1.2
13,Nc1c(Cl)cc([N+](=O)[O-])cc1Cl,-2.98
14,CC1(C)CC(NCCO)CC(C)(C)N1,10.5
15,Nc1cccnc1C(=O)[O-],7.18
16,Nc1ccnc2cc(Cl)ccc12,8.22
17,Cc1cc2c(cc1N)Sc1cc([NH+](C)C)ccc1N2,4.81
18,NC(C[NH3+])C[NH3+],3.72
19,CC(=O)N1CCNCC1,7.94
20,CCCc1nc2cc(OCC)ccc2[nH]1,6.12
21,O=[N+]([O-])c1ccc2[nH]c(-c3cccs3)nc2c1,2.36
22,N/C(=[NH+]\O)c1ccccc1N,2.2
23,O=c1cccccc1,-0.82
24,NCC(=O)NCC(=O)NCC(=O)N1CCC[C@H]1C(=O)[O-] (H-GGGP-OH),8.04
25,c1ccc2c(c1)C1CCN2C1 (stereo not given),7.1

row,SMILES,pKa
1,Cc1cc[nH+]c([O-])n1,3.15
2,O=C1CCC[C@H]2[C@H]3C[C@@H](CN12)[C@H]1CCCCN1C3,9.2
3,COc1cc(N)cc(C(=O)N[C@@H]2C[C@H]3CC[C@@H](C2)N3Cc2ccccc2)c1OC,9.07
4,Nc1ccc2cc3ccccc3nc2c1,8.04
5,Nc1nc(NCO)nc(NCO)n1,4.65
6,Cc1cc(N)ccc1-c1ccc([NH3+])cc1C,3.7
7,CN1[C@@H]2CC[C@H]1C[C@@H](O)C2,9.86
8,CC(C)CN(C)c1ccccc1,5.2
9,OCc1nc2ncncc2[nH]1,2.62
10,Oc1ccc2ccncc2c1,5.7
11,CC1CN2CCC1CC2 (stereo not given),11.3
12,Cc1ccc(Cl)cc1/C(=N/CCC[NH+](C)C)c1ccccc1,3.87
13,C[NH+](C)CCNc1c2ccccc2nc2cccc([N+](=O)[O-])c12,4.9
14,CN(C)c1ccc(/C=C/c2cc[n+]([O-])cc2)cc1,4.3
15,CCCCCCCCCCN(CC(C)O)CC(O)CC (stereo not given),6.7
16,Nc1nc([S-])[nH+]c([O-])c1C1=CCCCC1,7.11
17,COc1ccccc1/C(=N/CCCN(C)C)c1ccccc1,9
18,Cc1c[nH]cn1,7.51
19,c1ccc(-c2ccc(NCCN3CCOCC3)nn2)cc1,6.74
20,CC1=CN(C)CC1C (stereo not given),9.6
21,COc1ccc2c(c1)CC(C)N2 (stereo not given),6.2
22,[O-]c1nc(C(F)(F)F)nc2nc[nH]c12,5.1
